# US7663026B2, “Transformation of seaweed utilizing biolistic gene transfer to spores” (Institute of Oceanology Chinese Academy of Sciences, priority 2003, dated 2010)
# Assays:
# Laminaria = assay: Sensitivity of Laminaria to antibiotics/herbicide (selectable reagents); format: in vivo; conditions: qualitative ranking
# Undaria = assay: Sensitivity of Undaria to antibiotics/herbicide (selectable reagents); format: in vivo; conditions: qualitative ranking
compound,measurement,setting,value
O=C(N[C@H](CO)[C@H](O)c1ccc([N+](=O)[O-])cc1)C(Cl)Cl [chloramphenicol],sensitivity of the seaweed to the antibiotic or herbicide,Laminaria,sensitive
same,sensitivity of the seaweed to the antibiotic or herbicide,Undaria,sensitive
